Where a name gives a salt, the structure may show the parent alone.
Experiment: Nanoparticle zeta potential (Malvern Zetasizer Nano ZS)
Assay type: physicochemical
Conditions: LNP with sterol amine, core LNP Compound 18, DSPC, Cholesterol, and DMG-PEG 2K, [mRNA] 0.01 mg/mL in 0.1×PBS
Protocol: LNPs were prepared according to Example 2. Zeta potential was measured by diluting LNPs to [mRNA] 0.01 mg/mL in 0.1×PBS on a Malvern Zetasizer (Nano ZS).

| SMILES | Zeta Potential | Zeta Potential (β-sitosterol) |
| --- | --- | --- |
| CC(C)CCC[C@@H](C)[C@H]1CC[C@H]2[C@@H]3CC=C4C[C@@H](OC(=O)N(CCCN)CCCCNCCCN)CC[C@]4(C)[C@H]3CC[C@]12C [SA3, (3S,8S,9S,10R,13R,14S,17R)-10,13-dimethyl-17-((R)-6-methylheptan-2-yl)-2,3,4,7,8,9,10,11,12,13,14,15,16,17-tetradecahydro-1H-cyclopenta[a]phenanthren-3-yl (3-aminopropyl)(4-((3-aminopropyl)amino)butyl)carbamate, trihydrochloride salt] | 10.6 mV | – |
| CC(C)CCC[C@@H](C)[C@H]1CC[C@H]2[C@@H]3CC=C4C[C@@H](OC(=O)NCCNC(=N)N)CC[C@]4(C)[C@H]3CC[C@]12C [SA23, (3S,8S,9S,10R,13R,14S,17R)-10,13-dimethyl-17-((R)-6-methylheptan-2-yl)-2,3,4,7,8,9,10,11,12,13,14,15,16,17-tetradecahydro-1H-cyclopenta[a]phenanthren-3-yl (2-guanidinoethyl)carbamate, hydrochloride salt] | – | 12.7 mV |
| CC(C)CCC[C@@H](C)[C@H]1CC[C@H]2[C@@H]3CC=C4C[C@@H](OC(=O)N(CCCN)CCCCN)CC[C@]4(C)[C@H]3CC[C@]12C [SA29, (3S,8S,9S,10R,13R,14S,17R)-10,13-Dimethyl-17-((R)-6-methylheptan-2-yl)-2,3,4,7,8,9,10,11,12,13,14,15,16,17-tetradecahydro-1H-cyclopenta[a]phenanthren-3-yl (4-aminobutyl)(3-aminopropyl)carbamate dihydrochloride] | – | 8.3 mV |
| CC(C)CCC[C@@H](C)[C@H]1CC[C@H]2[C@@H]3CC=C4C[C@@H](OC(=O)NCCCNCCCCN)CC[C@]4(C)[C@H]3CC[C@]12C [SA30, (3S,8S,9S,10R,13R,14S,17R)-10,13-Dimethyl-17-((R)-6-methylheptan-2-yl)-2,3,4,7,8,9,10,11,12,13,14,15,16,17-tetradecahydro-1H-cyclopenta[a]phenanthren-3-yl (3-((4-aminobutyl)amino)propyl)carbamate dihydrochloride] | – | 8.7 mV |
| CC(C)CCC[C@@H](C)[C@H]1CC[C@H]2[C@@H]3CC=C4C[C@@H](OC(=O)CCC(=O)N(CCCN)CCCCN)CC[C@]4(C)[C@H]3CC[C@]12C [SA31, (3S,8S,9S,10R,13R,14S,17R)-10,13-Dimethyl-17-((R)-6-methylheptan-2-yl)-2,3,4,7,8,9,10,11,12,13,14,15,16,17-tetradecahydro-1H-cyclopenta[a]phenanthren-3-yl 4-((4-aminobutyl)(3-aminopropyl)amino)-4-oxobutanoate dihydrochloride] | – | 8.6 mV |

Source: patent US20250049727A1, “COMPOSITIONS FOR THE DELIVERY OF PAYLOAD MOLECULES TO AIRWAY EPITHELIUM” (ModernaTX, Inc., priority 2021, published 2025)
